{"source": "paper PMC9291756", "about": "“Pharmacokinetics of enflicoxib in dogs: Effects of prandial state and repeated administration” (Journal of Veterinary Pharmacology and Therapeutics, 2021)", "key": {"plasma proteins": {"system": "plasma proteins", "assay": "In vitro plasma protein binding (rapid equilibrium dialysis)", "type": "in vitro ADME", "conditions": "pH 7.4, dog plasma, 160, 400 and 1600 ng/ml (0.4, 1, 4 µM), 37°C, mean values", "description": "Equilibrium dialysis studies were performed using the Rapid Equilibrium Dialysis (RED) devices (Waters et al., [2008]) that consist of two chambers separated with a dialysis membrane with a cut‐off of 8.0 kDa (Pierce Biotechnology, ThermoFisher Scientific). The plasma protein binding was determined with blank canine plasma spiked with enflicoxib or its pyrazol metabolite. The highly bound compound tolterodine was used as a positive control. Stock solutions of the tested compounds were prepared at 10 mM concentration in DMSO and were immediately used or stored at −20 °C (±5°C) until further use.\nSamples were prepared by spiking dog plasma with the compounds at three increasing concentrations (0.4 µM, 1 µM and 4 µM). Plasma samples were loaded (200 µl) in the donor chambers while the opposite chamber contained 350 µl of dialysis buffer (0.1 M phosphate buffer, pH 7.4). Dialysis was run at 37°C for 4 h with continuous shaking. […] The unbound fractions for enflicoxib or its pyrazol metabolite were determined by LC‐MS/MS using a modification of the previously described method. […]\nThe percent of binding to plasma proteins was calculated as: %Protein binding = (Cdonor‐Cacceptor)/Cdonor∗100. where: Cdonor = Concentration in the donor chamber after dialysis; Cacceptor = Concentration in the acceptor chamber after dialysis. […]\nFor each plasma sample, protein binding was determined in triplicate."}, "[1]": {"assay": "In vitro blood to plasma partitioning", "conditions": "female, Beagle, dog, whole blood", "description": "Whole blood was obtained from 3 untreated female Beagle dogs (located in Isoquimen SL, Sant Feliu de Codines, Barcelona, Spain) and pooled into two different batches. Lithium heparin was used as anticoagulant. Blood was maintained in a rotator shaker at room temperature before use.\nThe derived working solutions were freshly prepared each day of experimentation.\nThe haematocrit (H), percent of total blood cells in whole blood samples (v/v), was determined before the assay. […] The samples were incubated separately (n = 3) at ca 37°C for 60 min under gentle agitation in a rotator shaker in polypropylene tubes. The concentration of organic solvent in the incubates was kept below 0.05% to prevent haemolysis. Reference plasma was incubated similarly in Eppendorf protein LoBind tubes as a surrogate matrix of whole blood to assess total drug concentration (Cb).\nFor the enflicoxib and pyrazol metabolite determination, the plasma specimens were mixed with AcN containing the internal standard celecoxib for protein precipitation (1:3 ratio plasma: solution). […] After centrifugation, the supernatants were diluted with 0.1% FA in water: AcN (90:10) and injected into the LC‐MS/MS system. […] Blank samples were processed as described before, and were used to check the selectivity and carry‐over of the LC‐MS/MS analytical runs.\nThe quantification of each test item in plasma was performed using calibration curves ranging from 0.05 to 20 µg/ml. […] In both cases, the LC‐MS/MS response ratios (peak area of analyte/peak area Internal Standard) were used for quantitation.\nThe analyte concentration obtained from LC‐MS/MS analysis in each sample was used to calculate the blood‐plasma concentration ratio (C b/C p) as follows:\nC b/C p = [(concentration in reference plasma; Equivalent to concentration in whole blood) / (concentration in plasma from whole blood)].\nFrom these values, the red blood cells (RBC) to plasma ratio (K RBC/PL) was also calculated using the following equation: KRBC/PL=1/H×Cb/Cp‐1+1 where H: haematocrit."}, "COX‐2": {"system": "COX‐2", "conditions": "in vitro and in vivo; ref Iñiguez et al., 2010; Wagemakers et al., 2009; cited from earlier work"}, "[2]": {"parameters": "method as in Ecuphar/Animalcare internal data", "conditions": "ref Ecuphar/Animalcare internal data; cited from earlier work"}, "[3]": {"assay": "Single intravenous dose pharmacokinetic study", "procedure": "(§1) For the IV administration, a stable 2 mg/ml enflicoxib injectable solution was prepared in a vehicle containing 20% ethanol, 8% kolliphor HS‐15 and 72% water, and sterilised using a ≤0.22‐µm syringe filter. To avoid administering an excessive volume of product, dogs in the IV group received a single dose of 2 mg/kg and were followed for 35 days. A 22‐gauge ¾” catheter was introduced into the cephalic vein, using aseptic technique. A syringe with sterile saline was used to test the patency of the vein. The calculated volume of the solution was slowly administered through the catheter over approximately 1 min. Approximately 1–2 ml of sterile saline was used to flush the catheter following drug administration.\n(§2) Blood samples (2 ml) were collected from the jugular vein in K3EDTA tubes for determination of plasma concentrations of enflicoxib and its metabolites, at the following time points:\n(§3) Blood samples were centrifuged within 30 min after collection at 2500 g for 10 min at ca. +5 °C. The resultant plasma was divided into 2 aliquots and frozen at ca. −20°C until analysis.\n(§4) Method for enflicoxib and its pyrazol metabolite in plasma involved its extraction from 100 µL samples by solid phase extraction (Oasis MCX 30 μm 96‐well plates, 10 mg; Waters) and separated by reverse‐phase liquid chromatography on a Luna PFP (2) column (3 μm, 50 × 4.6 mm; Phenomenex), in gradient mode elution using 0.1% FA in water and MeOH 60:40 (v/v) as mobile phase flushed a flow rate of 1 ml/min. Celecoxib was used as internal standard.\n(§5) The pharmacokinetic parameters were obtained from the individual plasma concentration‐time profiles of enflicoxib or its metabolites in each animal, by non‐compartmental analysis using Phoenix® WinNonLin® software (version 8.0. Pharsight Corporation). For all calculations, values below lower limit of quantification (BLLOQ) were considered as “0” except trailing concentrations, which were excluded from calculations.\n(§6) Additional pharmacokinetic parameters calculated for the IV treatment were plasma clearance (CL) as CL = Dose/AUCinf; volume of distribution at steady‐state (Vss) as Vss = MRTINF × CL; volume of distribution based on the terminal phase (Vz) as Vz = CL/ λz); and Mean resident time (MRT) was calculated as MRT = AUMC/AUC, with AUMC being the area under the first moment curve. For enflicoxib, C0 was calculated as the extrapolated plasma concentration at time zero after IV administration."}, "[4]": {"assay": "Single oral dose pharmacokinetic study, fed or fasted", "conditions": "for bioavailability / half-life / Tmax: both, Beagle, dog, plasma; for bioavailability: F% (absolute oral bioavailability); for Tmax: single oral 8 mg/kg enflicoxib, median [min-max]", "source_text": "(§7) Thirty healthy Beagle dogs (males and females) of 1–5 years old at the time of dosing, and bodyweight between 7.4 and 12.3 kg, were housed indoors in climate‐controlled facilities in accordance with accepted laboratory animal care and use guidelines. As the animals belonged to the same centre, they were acclimatised for 5 days before study initiation.\n(§8) Dogs were offered approximately 400 g of pelleted canine feed once daily. Fresh potable water was offered ad libitum. All dogs, except those in the Oral‐Fed group, were fasted overnight before dosing and food was offered after the 4‐h blood collection. Dogs in the Oral‐Fed group were supplied with 50% of their daily food ration approximately 1 h before administration, and the remainder of the food was given after the first 15‐min blood collection period post administration.\n(§9) The oral groups received a single oral nominal dose of 8 mg/kg of enflicoxib (Daxocox® tablets for dogs, Ecuphar/Animalcare) in its final formulation and were followed for 126 days. The dog’s mouth was opened, the dose placed towards the back of the tongue, and 5 ml of water was administered following the dose to aid in swallowing.\nas §2\n(§10) Oral groups: Before administration (pre‐dose; Day 1 to Day 0), 15 and, 30 min, 1, 2, 4, 6, 8, 12, 24, 48 h and 3, 4, 6, 7, 10, 14, 21, 28, 42, 56, 70, 84, 98, 112, and 126 days post administration, with the aim to characterise the complete pharmacokinetic profile of the pyrazol metabolite.\nas §3\n(§11) Plasma concentrations of enflicoxib and its metabolites were measured by two HPLC methods coupled with MS/MS detection (MRM) in negative ion electrospray mode.\nas §4, §5"}, "[5]": {"assay": "Distribution into synovial fluid after IV administration", "conditions": "day 35 after IV 2 mg/kg enflicoxib", "source_text": "(§12) The distribution into synovial fluid was prospectively investigated in samples corresponding to the last collection timepoint after the IV administration.\n(§13) Samples of synovial fluid from the 10 dogs in the IV group were obtained under anaesthesia at 35 days post administration. Blank synovial fluid was obtained from 8 non‐dosed dogs at the same study facilities and pooled before being used for preparation of calibration curve and quality control samples for the qualification of the bioanalytical method.\n(§14) Method for hydroxylated pyrazoline metabolite in plasma and for enflicoxib, pyrazol metabolite and hydroxylated pyrazoline metabolite in synovial fluid used the protein‐precipitation technique for extraction from dog samples (50 µl). The analytes were separated by reverse‐phase liquid chromatography on a Kinetex F5 100 Å column (100 × 3.0 mm; Phenomenex), in gradient mode elution using 0.1% FA in water and MeOH as mobile phase flushed a flow rate of 0.75 ml/min. Celecoxib was also used as internal standard.\n(§15) For synovial fluid samples, the ratio of synovial fluid to plasma for enflicoxib and its metabolites was calculated at day 35 after IV administration."}, "[6]": {"assay": "Multiple dose oral toxicokinetic (target animal safety) study", "conditions": "for AUC / Cmax: both, Beagle, dog, plasma, po; for AUC: AUC168, group 1X; for accumulation ratio, loading dose normalised to maintenance dose: weeks 13 and 31 vs week 1, all dose levels", "source_text": "(§16) This study was designed as a Target Animal Safety (TAS) study, to assess the effects of repeated oral administrations of enflicoxib at either the recommended dose (1X), three times the dose (3X) or five times the dose (5X), that were compared to an untreated group (placebo, 0X) and followed the internationally agreed TAS guideline (VICH GL[43], [2008]). Blood samples were taken during the study to assess the dose‐exposure proportionality after single and repeated dose administrations.\n(§17) Thirty‐two male and female healthy Beagle dogs, 8–10 months old and experimentally naïve, were obtained from a laboratory animal supplier. All animals were acclimatised for 28 days before study initiation. All dogs were housed in pairs of the same sex and dose group in indoor pens under temperature and humidity‐controlled conditions (15 to 24°C, 40–70% RH). Artificial lighting was provided for approximately 12 h per day. […] For each group, periods of exercise and socialisation were permitted daily. Animals were fed daily with 400 g of a certified commercial pelleted diet.\n(§18) Dogs were stratified by sex and weight, (16 males weighing 6.7–9.9 kg and 16 females weighing 5.3–7.0 kg) and allocated to four groups (0X, 1X, 3X and 5X) using a pseudo‐random body weight stratification procedure, which yielded groups of four dogs of each sex with approximately equal mean body weight. Dogs were distributed in a block of several adjacent pens and identified by a microchip inserted shortly after arrival.\n(§19) Enflicoxib was supplied as commercial Daxocox® tablets containing 15, 30, 45, 70 or 100 mg of enflicoxib (Ecuphar/Animalcare). The number and size of the tablets administered orally were calculated weekly based on the most recent body weights and the target dose level required. Tablets were administered once weekly, for a total of 13 weeks (5X group) or 32 weeks (0X, 1X and 3X groups). Tablets administration was followed by 10–20 ml tap water to facilitate passage of drug to the stomach.\n(§20) Blood samples were collected as described for the determination of blood concentrations of enflicoxib and its pyrazol metabolite. The sampling schedule was at 6 h (on week 1 only), 24, 48, 72, 96, 120, 144 and 168 h post dose in weeks 1, 13 and 31, Additionally, weekly samples were taken prior to each dose throughout the study. Plasma was obtained and stored as described before.\n(§21) The AUCt and AUCinf values were calculated with linear trapezoidal rule, and the extrapolation of AUCt to obtain AUCinf was performed using the observed concentration at the last time point. Due to the limited time between doses, the terminal rate constants (λz), and corresponding terminal half‐lives (t1/2), were calculated only for the parent compound. […] The accumulation ratios, based on AUC168 values of both compounds, were calculated at weeks 13 (last experimental week for the 5X group) and 31 (last experimental week for the other groups).\n(§22) For the repeated oral dose study, analyses of variance were performed for week 1 and week 13 data separately, including all three dose levels to assess dose proportionality. For weeks 13 and 31, the analysis was done for the low and mid dose levels only, adjusted to 1 mg/kg. The factors in these analyses were dose group, time, sex and their interactions. Animal was included as a blocking factor since the same animals were bled on each sampling day. The data were logarithmically transformed prior to its analysis using SAS 9.4 (SAS Institute (2002) SAS OnlineDoc® Version Nine. SAS Institute Inc.)."}, "[7]": {"conditions": "dog, in vivo", "source_text": "as §7, §8, §9, §2, §10, §3, §11, §4, §5"}, "[8]": {"conditions": "dog, in vivo, iv, 2 mg/kg", "procedure": "as §1, §2, §3, §4, §5, §6"}, "[9]": {"conditions": "dog, in vivo, iv, 2 mg/kg", "remark": "listed apart in the source", "source_text": "as §12, §13, §14, §15"}, "[10]": {"conditions": "dog, in vivo", "remark": "listed apart in the source", "source_text": "as §16, §17, §18, §19, §20, §21, §22"}, "[11]": {"conditions": "both, Beagle, dog, plasma, iv, 2 mg/kg"}}, "note": "Read-outs that look alike come from different tables or passages of the source."}
{"molecule": "NS(=O)(=O)c1ccc(N2N=C(C(F)(F)F)C[C@H]2c2ccc(F)cc2F)cc1", "note": "(racemic) [Enflicoxib, 4‐(5‐(2,4‐difluorophenyl)‐3‐(trifluoromethyl)‐4,5‐dihydro‐1H‐pyrazol‐1‐yl) benzenesulfonamide]", "values": [{"measurement": "fraction unbound at 4 h", "setting": "plasma proteins", "result": "0.0099 to 0.0262"}, {"measurement": "blood plasma ratio at 60 min, 1 µg/ml", "setting": "[1]", "result": 1.07}, {"measurement": "blood plasma ratio at 60 min, 5 µg/ml", "setting": "[1]", "result": 0.66}, {"measurement": "blood plasma ratio at 60 min, 15 µg/ml", "setting": "[1]", "result": 0.66}, {"measurement": "inhibition of COX‐2 enzymatic activity", "setting": "COX‐2", "result": "potent inhibitors"}, {"measurement": "solubility in water", "setting": "[2]", "result": "practically insoluble"}, {"measurement": "t1/2", "setting": "[3]; IV 2 mg/kg enflicoxib, harmonic mean [min-max], pyrazol metabolite n=4", "result": "19.77 [11.2–29.7] h"}, {"measurement": "Vd", "setting": "[3]; [11]", "result": 4, "unit": "L/kg"}, {"measurement": "clearance", "setting": "[3]; [11]", "result": 2.33, "unit": "mL/min/kg"}, {"measurement": "half-life", "setting": "[3]; both, Beagle, dog, plasma, iv, 2 mg/kg, t1/2, IV 2 mg/kg enflicoxib, harmonic mean [min-max], pyrazol metabolite n=4", "result": 20, "unit": "h"}, {"measurement": "bioavailability", "setting": "[4]; oral, 8 mg/kg, oral 8 mg/kg fasted vs IV 2 mg/kg", "result": 44, "unit": "%"}, {"measurement": "bioavailability", "setting": "[4]; oral, 8 mg/kg, oral 8 mg/kg fed vs IV 2 mg/kg", "result": 63, "unit": "%"}, {"measurement": "half-life", "setting": "[4]; other: IV or oral, whatever the feeding condition, terminal elimination half‐life (t1/2), all routes of administration (IV or oral, whatever the feeding condition)", "result": 20, "unit": "h"}, {"measurement": "bioavailability", "setting": "[4]; po, 8 mg/kg, oral 8 mg/kg fed vs IV 2 mg/kg", "result": 63.4, "unit": "%"}, {"measurement": "Tmax", "setting": "[4]; po, 8 mg/kg, fasted", "result": 4, "unit": "h"}, {"measurement": "Tmax", "setting": "[4]; po, 8 mg/kg, fed", "result": 2, "unit": "h"}, {"measurement": "half-life", "setting": "[4]; po, 8 mg/kg, t1/2, single oral 8 mg/kg enflicoxib, fasted, harmonic mean", "result": 18.3, "unit": "h"}, {"measurement": "half-life", "setting": "[4]; po, 8 mg/kg, t1/2, single oral 8 mg/kg enflicoxib, fed, harmonic mean", "result": 19.7, "unit": "h"}, {"measurement": "F% (absolute oral bioavailability)", "setting": "[4]; oral 8 mg/kg fasted vs IV 2 mg/kg", "result": 44.1, "unit": "%"}, {"measurement": "increase of extent of absorption and plasma exposure by food", "setting": "[4]; oral 8 mg/kg, fed vs fasted", "result": 43, "unit": "%"}, {"measurement": "Frel% (relative oral bioavailability)", "setting": "[4]; oral fed vs oral fasted, 8 mg/kg", "result": 143.3, "unit": "%"}, {"measurement": "synovial fluid concentration", "setting": "[5]", "result": "BLLOQ"}, {"measurement": "tolerability", "setting": "[6]; all three dose levels (1X, 3X, 5X), weekly oral, all dogs", "result": "well tolerated"}, {"measurement": "AUC", "setting": "[6]; 4 mg/kg, week 13, mean ± SD", "result": 47600, "unit": "ng·h/mL"}, {"measurement": "AUC", "setting": "[6]; 4 mg/kg, week 31, mean ± SD", "result": 64000, "unit": "ng·h/mL"}, {"measurement": "Cmax", "setting": "[6]; 4 mg/kg, group 1X (8 + 4 mg/kg weekly oral), week 1, mean ± SD, n=8", "result": "2020 ± 461", "unit": "ng/mL"}, {"measurement": "Cmax", "setting": "[6]; 4 mg/kg, group 1X, week 13, mean ± SD", "result": "878 ± 319", "unit": "ng/mL"}, {"measurement": "Cmax", "setting": "[6]; 4 mg/kg, group 1X, week 31, mean ± SD", "result": "1450 ± 374", "unit": "ng/mL"}, {"measurement": "AUC", "setting": "[6]; 8 mg/kg, week 1, mean ± SD", "result": 87900, "unit": "ng·h/mL"}, {"measurement": "Cmax", "setting": "[6]; 12 mg/kg, group 3X, week 13, mean ± SD", "result": "2760 ± 817", "unit": "ng/mL"}, {"measurement": "Cmax", "setting": "[6]; 12 mg/kg, group 3X, week 31, mean ± SD", "result": "3380 ± 1120", "unit": "ng/mL"}, {"measurement": "Cmax", "setting": "[6]; 20 mg/kg, group 5X (40 + 20 mg/kg), week 1, mean ± SD", "result": "9590 ± 2040", "unit": "ng/mL"}, {"measurement": "Cmax", "setting": "[6]; 20 mg/kg, group 5X, week 13, mean ± SD", "result": "4390 ± 1050", "unit": "ng/mL"}, {"measurement": "Cmax", "setting": "[6]; 24 mg/kg, group 3X (12 + 24 mg/kg as printed), week 1, mean ± SD", "result": "6050 ± 1390", "unit": "ng/mL"}, {"measurement": "Normalised accumulation ratio", "setting": "[6]; group 1X, week 13 vs week 1, based on AUC168", "result": 0.93}, {"measurement": "Normalised accumulation ratio", "setting": "[6]; group 1X, week 31 vs week 1", "result": 1.05}, {"measurement": "Normalised accumulation ratio", "setting": "[6]; group 3X, week 13 vs week 1", "result": 0.9}, {"measurement": "Normalised accumulation ratio", "setting": "[6]; group 3X, week 31 vs week 1", "result": 1.15}, {"measurement": "Normalised accumulation ratio", "setting": "[6]; group 5X, week 13 vs week 1", "result": 1}, {"measurement": "time of Cmax", "setting": "[6]; week 1 after loading dose, all groups, 6 h = first sampling time", "result": 6, "unit": "h"}, {"measurement": "pre‐dose plasma concentration", "setting": "[6]; week 13, all groups", "result": "below 100 ng/ml"}, {"measurement": "correlation coefficient, adjusted PK parameters (Cmax, AUC168) vs dose level", "setting": "[6]; weeks 1 and 13, actual doses, linear regression", "result": "higher than 0.8"}, {"measurement": "accumulation ratio, loading dose normalised to maintenance dose", "setting": "[6]", "result": "~1"}, {"measurement": "accumulation ratio, loading dose normalised to maintenance dose", "setting": "[6]; listed as parent compound", "result": "less than 1"}, {"measurement": "accumulation ratio based on AUC168 (not normalised)", "setting": "[6]; weeks 13 and 31 vs week 1, all three dose levels", "result": "approximately 0.5"}]}
{"molecule": "NS(=O)(=O)c1ccc(-n2nc(C(F)(F)F)cc2-c2ccc(F)cc2F)cc1", "note": "[Pyrazol metabolite]", "values": [{"measurement": "F% (absolute oral bioavailability)", "setting": "[7]", "result": 49.3, "unit": "%"}, {"measurement": "mean terminal elimination half‐life (t½)", "setting": "[7]", "result": 408, "unit": "h"}, {"measurement": "terminal elimination half‐life (t1/2)", "setting": "[7]", "result": "336 to 406", "unit": "h"}, {"measurement": "AUCinf", "setting": "[7]; po, 8 mg/kg", "result": "4,22,700 ± 2,54,500 (60.2) ng·h/ml"}, {"measurement": "AUClast", "setting": "[7]; po, 8 mg/kg", "result": "3,91,500 ± 2,55,100 (65.2) ng·h/ml"}, {"measurement": "Cmax", "setting": "[7]; po, 8 mg/kg", "result": "890.3 ± 551.3 (61.9) ng/ml"}, {"measurement": "Tmax", "setting": "[7]; po, 8 mg/kg", "result": "120.00 [48.00–336.00] h"}, {"measurement": "Tmax, oral doses (fed and fasted), median", "setting": "[7]; po, 8 mg/kg", "result": "120 to 144", "unit": "h"}, {"measurement": "t1/2", "setting": "[7]; po, 8 mg/kg", "result": "353.9 [255–491] h"}, {"measurement": "AUClast", "setting": "[8]", "result": "1,56,500 ± 39,810 (25.4) ng·h/ml"}, {"measurement": "Cmax", "setting": "[8]", "result": "384.5 ± 123.8 (32.2) ng/ml"}, {"measurement": "MRTlast", "setting": "[8]", "result": "329.5 ± 27.46 (8.3) h"}, {"measurement": "Tmax", "setting": "[8]", "result": "96 [48–96] h"}, {"measurement": "ratio synovial fluid versus plasma", "setting": "[9]", "result": "0.031-0.078"}, {"measurement": "accumulation ratio between weeks 13 and 31, range of dogs", "setting": "[10]", "result": "0.56-1.49"}, {"measurement": "accumulation ratio week 31 vs week 13", "setting": "[10]", "result": "around 1.3"}, {"measurement": "correlation coefficient, adjusted PK parameters (Cmax, AUC168) vs dose level", "setting": "[10]", "result": "> 0.9"}, {"measurement": "inhibition of COX‐2 enzymatic activity", "setting": "COX‐2", "result": "potent inhibitors"}]}
